Bridge positions count the residues as written; N and C are the ends. Square brackets hold non-standard residues; d marks the D form. Peptide text beside a SMILES is read from it. * marks the point of attachment. ξ: configuration not given here. Phe(4-CONH2) = NC(=O)c1ccc(C[C@H](N)C(=O)O)cc1; Bip = N[C@@H](Cc1ccc(-c2ccccc2)cc1)C(=O)O; Phe(4-NH2) = Nc1ccc(C[C@H](N)C(=O)O)cc1; Phe(3-Me) = Cc1cccc(C[C@H](N)C(=O)O)c1; Cyclopropanecarbonyl = O=C(C1CC1)*; Val(3-OH) = CC(C)(O)[C@H](N)C(=O)O; Cha = N[C@@H](CC1CCCCC1)C(=O)O; Thr(3ξ) = CC(O)[C@H](N)C(=O)O; 12Ado = NCCCCCCCCCCCC(=O)O; Carboxymethyl = O=C(O)C*; Orn = NCCC[C@H](N)C(=O)O; Aun = NCCCCCCCCCCC(=O)O; Dab = NCC[C@H](N)C(=O)O; Dap = NC[C@H](N)C(=O)O; AEEA = NCCOCCOCC(=O)O; Piv = CC(C)(C)C(=O)*
Biological target: T1, PD-1/PD-L1 interaction (PE-labeled human PD-L1-Ig binding to Jurkat cell line over-expressing human PD-1) (Homo sapiens, UniProt Q15116)
T1 construct: expressed in transfected cells; host or cells: Jurkat
T1 sequence (Q15116 25-288): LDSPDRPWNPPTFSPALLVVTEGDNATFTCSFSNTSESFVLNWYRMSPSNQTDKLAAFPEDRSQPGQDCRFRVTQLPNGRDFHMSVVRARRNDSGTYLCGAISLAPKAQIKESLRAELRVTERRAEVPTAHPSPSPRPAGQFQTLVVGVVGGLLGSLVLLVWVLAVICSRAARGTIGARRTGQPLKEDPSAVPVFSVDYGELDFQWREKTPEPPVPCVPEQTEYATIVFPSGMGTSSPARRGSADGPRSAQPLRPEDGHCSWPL
Experiment: Jurkat-PD-1 Cell Binding High-Content Screening Assay (CBA)
Format: cell-based
Settings: Jurkat cell line over-expressing human PD-1; PE-labeled PD-L1-Ig 20 nM final; read-out: Jurkat hPD1-PDL1 IC50
Procedure, shortened: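 Human PD-L1-Ig carrying a covalent PE label on its Ig tag serves as the probe, applied at 20 nM final to compound-treated (2 h, 37° C) Jurkat-hPD-1 cells in medium with 10% fetal calf serum. After one hour, fixation and nuclear staining precede high-content image analysis.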

SMILES | IC50
CC(=O)NCCCC[C@@H]1NC(=O)[C@H](Cc2cccc(C)c2)NC(=O)[C@H](CC(=O)O)NC(=O)[C@H](Cc2ccc(OCC(=O)O)cc2)NC(=O)[C@H](Cc2ccc(NC(C)=O)cc2)NC(=O)CSC[C@@H](C(=O)N[C@@H](CCN)C(=O)NCCCCCCCCCCC(=O)O)NC(=O)[C@H](C(C)O)NC(=O)[C@H](C(C)C)NC(=O)[C@H](CC2CCCCC2)NC(=O)[C@H](CCN)NC(=O)[C@@H](CC(C)C)NC(=O)[C@H](CCCN)NC(=O)[C@H](CCCCNC(C)=O)NC(=O)[C@H](Cc2ccc(-c3ccccc3)cc2)NC1=O (stereo partly drawn) [Compound 3602] ({CH2CO}-[Phe(4-NH2)](Ac)Y(Carboxymethyl)D[Phe(3-Me)]K(Ac)[Bip]K(Ac)[Orn][dL][Dab][Cha]V[Thr(3ξ)]C[Dab][Aun]-OH; thioether N-14) | 23.1 nM
Cc1cccc(C[C@@H]2NC(=O)[C@H](CC(=O)O)NC(=O)[C@H](Cc3ccc(OCC(=O)O)cc3)NC(=O)[C@H](CCN)NC(=O)CSC[C@@H](C(=O)N[C@@H](CCN)C(=O)NCCCCCCCCCCC(=O)O)NC(=O)[C@H](CO)NC(=O)[C@H](C(C)(C)O)NC(=O)[C@H](CC3CCCCC3)NC(=O)[C@H](CCN)NC(=O)[C@@H](CC(C)C)NC(=O)[C@H](CCCN)NC(=O)[C@H](Cc3ccc(O)cc3)NC(=O)[C@H](Cc3ccc(-c4ccccc4)cc3)NC(=O)[C@H](Cc3ccc(C(N)=O)cc3)NC2=O)c1 [Compound 3603] ({CH2CO}-[Dab]Y(Carboxymethyl)D[Phe(3-Me)][Phe(4-CONH2)][Bip]Y[Orn][dL][Dab][Cha][Val(3-OH)]SC[Dab][Aun]-OH; thioether N-14) | 9.2 nM
Cc1cccc(C[C@@H]2NC(=O)[C@H](CC(=O)O)NC(=O)[C@H](Cc3ccc(OCC(=O)O)cc3)NC(=O)[C@H](CCN)NC(=O)CSC[C@@H](C(=O)N[C@@H](CCN)C(=O)NCCCCCCCCCCC(=O)O)NC(=O)[C@H](CO)NC(=O)[C@H](C(C)(C)O)NC(=O)[C@H](CC3CCCCC3)NC(=O)[C@H](CCN)NC(=O)[C@@H](CC(C)C)NC(=O)[C@H](CCCN)NC(=O)[C@H](Cc3ccc(C(N)=O)cc3)NC(=O)[C@H](Cc3ccc(-c4ccccc4)cc3)NC(=O)[C@H](Cc3ccc(OCC(=O)O)cc3)NC2=O)c1 [Compound 3604] ({CH2CO}-[Dab]Y(Carboxymethyl)D[Phe(3-Me)]Y(Carboxymethyl)[Bip][Phe(4-CONH2)][Orn][dL][Dab][Cha][Val(3-OH)]SC[Dab][Aun]-OH; thioether N-14) | 6.8 nM
Cc1cccc(C[C@@H]2NC(=O)[C@H](CC(=O)O)NC(=O)[C@H](Cc3ccc(OCC(=O)O)cc3)NC(=O)[C@H](C(C)O)NC(=O)CSC[C@@H](C(=O)N[C@@H](CCN)C(=O)NCCOCCOCC(=O)NCCCCCCCCCCC(=O)O)NC(=O)[C@H](CCCCN)NC(=O)[C@H](C(C)C)NC(=O)[C@H](CC3CCCCC3)NC(=O)[C@H](CCN)NC(=O)[C@@H](CC(C)C)NC(=O)[C@H](CCCN)NC(=O)[C@H](Cc3ccc(O)cc3)NC(=O)[C@H](Cc3ccc(-c4ccccc4)cc3)NC(=O)[C@H](Cc3ccc(O)cc3)NC2=O)c1 (stereo partly drawn) [Compound 3607] ({CH2CO}-[Thr(3ξ)]Y(Carboxymethyl)D[Phe(3-Me)]Y[Bip]Y[Orn][dL][Dab][Cha]VKC[Dab][AEEA][Aun]-OH; thioether N-14) | 11.8 nM
Cc1cccc(C[C@@H]2NC(=O)[C@H](CC(=O)O)NC(=O)[C@H](Cc3ccc(OCC(=O)O)cc3)NC(=O)[C@H](CN)NC(=O)CSC[C@@H](C(=O)N[C@@H](CCCCN)C(=O)N[C@@H](CO)C(=O)NCCCCCCCCCCC(=O)O)NC(=O)[C@H](CCCN)NC(=O)[C@H](C(C)C)NC(=O)[C@H](CC3CCCCC3)NC(=O)[C@H](CCN)NC(=O)[C@@H](CC(C)C)NC(=O)[C@H](CCCN)NC(=O)[C@H](Cc3ccc(O)cc3)NC(=O)[C@H](Cc3ccc(-c4ccccc4)cc3)NC(=O)[C@H](C(C)C)NC2=O)c1 [Compound 3608] ({CH2CO}-[Dap]Y(Carboxymethyl)D[Phe(3-Me)]V[Bip]Y[Orn][dL][Dab][Cha]V[Orn]CKS[Aun]-OH; thioether N-14) | 52.7 nM
Cc1cccc(C[C@@H]2NC(=O)[C@H](CC(=O)O)NC(=O)[C@H](Cc3ccc(OCC(=O)O)cc3)NC(=O)[C@H](CCN)NC(=O)CSC[C@@H](C(=O)N[C@@H](CCN)C(=O)NCCOCCOCC(=O)NCCCCCCCCCCC(=O)O)NC(=O)[C@H](CCCN)NC(=O)[C@H](C(C)C)NC(=O)[C@H](CC3CCCCC3)NC(=O)[C@H](CCN)NC(=O)[C@@H](CC(C)C)NC(=O)[C@H](CCCN)NC(=O)[C@H](CCCCNC(=O)C(C)(C)C)NC(=O)[C@H](Cc3ccc(-c4ccccc4)cc3)NC(=O)[C@H](CCCCNC(=O)C(C)(C)C)NC2=O)c1 [Compound 3609] ({CH2CO}-[Dab]Y(Carboxymethyl)D[Phe(3-Me)]K(Piv)[Bip]K(Piv)[Orn][dL][Dab][Cha]V[Orn]C[Dab][AEEA][Aun]-OH; thioether N-14) | 18.8 nM
Cc1cccc(C[C@@H]2NC(=O)[C@H](CC(=O)O)NC(=O)[C@H](Cc3ccc(OCC(=O)O)cc3)NC(=O)[C@H](CCN)NC(=O)CSC[C@@H](C(=O)N[C@@H](CCN)C(=O)NCCOCCOCC(=O)NCCCCCCCCCCC(=O)O)NC(=O)[C@H](CCCN)NC(=O)[C@H](C(C)C)NC(=O)[C@H](CC3CCCCC3)NC(=O)[C@H](CCN)NC(=O)[C@@H](CC(C)C)NC(=O)[C@H](CCCN)NC(=O)[C@H](Cc3ccc(O)cc3)NC(=O)[C@H](Cc3ccc(-c4ccccc4)cc3)NC(=O)[C@H](CCCCNC(=O)C(C)(C)C)NC2=O)c1 [Compound 3610] ({CH2CO}-[Dab]Y(Carboxymethyl)D[Phe(3-Me)]K(Piv)[Bip]Y[Orn][dL][Dab][Cha]V[Orn]C[Dab][AEEA][Aun]-OH; thioether N-14) | 10.1 nM
Cc1cccc(C[C@@H]2NC(=O)[C@H](CC(=O)O)NC(=O)[C@H](Cc3ccc(OCC(=O)O)cc3)NC(=O)[C@H](CCN)NC(=O)CSC[C@@H](C(=O)N[C@@H](CCCN)C(=O)N[C@@H](CN)C(=O)NCCCCCCCCCCC(=O)O)NC(=O)[C@H](CCCN)NC(=O)[C@H](C(C)C)NC(=O)[C@H](CC3CCCCC3)NC(=O)[C@H](CCN)NC(=O)[C@@H](CC(C)C)NC(=O)[C@H](CCCN)NC(=O)[C@H](Cc3ccc(O)cc3)NC(=O)[C@H](Cc3ccc(-c4ccccc4)cc3)NC(=O)[C@H](CCCCNC(=O)C(C)(C)C)NC2=O)c1 [Compound 3612] ({CH2CO}-[Dab]Y(Carboxymethyl)D[Phe(3-Me)]K(Piv)[Bip]Y[Orn][dL][Dab][Cha]V[Orn]C[Orn][Dap][Aun]-OH; thioether N-14) | 13.6 nM
Cc1cccc(C[C@@H]2NC(=O)[C@H](CC(=O)O)NC(=O)[C@H](Cc3ccc(OCC(=O)O)cc3)NC(=O)[C@H](CCN)NC(=O)CSC[C@@H](C(=O)N[C@@H](CCCCN)C(=O)N[C@@H](CN)C(=O)NCCCCCCCCCCC(=O)O)NC(=O)[C@H](CCCCN)NC(=O)[C@H](C(C)C)NC(=O)[C@H](CC3CCCCC3)NC(=O)[C@H](CCN)NC(=O)[C@@H](CC(C)C)NC(=O)[C@H](CCCN)NC(=O)[C@H](Cc3ccc(O)cc3)NC(=O)[C@H](Cc3ccc(-c4ccccc4)cc3)NC(=O)[C@H](CCCCNC(=O)C(C)(C)C)NC2=O)c1 [Compound 3613] ({CH2CO}-[Dab]Y(Carboxymethyl)D[Phe(3-Me)]K(Piv)[Bip]Y[Orn][dL][Dab][Cha]VKCK[Dap][Aun]-OH; thioether N-14) | 24.1 nM
Cc1cccc(C[C@@H]2NC(=O)[C@H](CC(=O)O)NC(=O)[C@H](Cc3ccc(OCC(=O)O)cc3)NC(=O)[C@H](CCCNC(=O)C3CC3)NC(=O)CSC[C@@H](C(=O)N[C@@H](CCCN)C(=O)N[C@@H](CO)C(=O)NCCCCCCCCCCCC(=O)O)NC(=O)[C@H](CO)NC(=O)[C@H](CCCCN)NC(=O)[C@H](CC3CCCCC3)NC(=O)[C@H](CCN)NC(=O)[C@@H](CC(C)C)NC(=O)[C@H](CCCN)NC(=O)[C@H](Cc3ccc(OCC(=O)O)cc3)NC(=O)[C@H](Cc3ccc(-c4ccccc4)cc3)NC(=O)[C@H](Cc3ccc(OCC(=O)O)cc3)NC2=O)c1 [Compound 3614] ({CH2CO}-[Orn](Cyclopropanecarbonyl)Y(Carboxymethyl)D[Phe(3-Me)]Y(Carboxymethyl)[Bip]Y(Carboxymethyl)[Orn][dL][Dab][Cha]KSC[Orn]S[12Ado]-OH; thioether N-14) | 9.7 nM
Cc1cccc(C[C@@H]2NC(=O)[C@H](CC(=O)O)NC(=O)[C@H](Cc3ccc(OCC(=O)O)cc3)NC(=O)[C@H](CCN)NC(=O)CSC[C@@H](C(=O)N[C@H](CC(N)=O)C(=O)NCCOCCOCC(=O)NCCCCCCCCCCC(=O)O)NC(=O)[C@H](CCCN)NC(=O)[C@H](C(C)C)NC(=O)[C@H](CC3CCCCC3)NC(=O)[C@H](CCN)NC(=O)[C@@H](CC(C)C)NC(=O)[C@H](CCCN)NC(=O)[C@H](Cc3ccc(O)cc3)NC(=O)[C@H](Cc3ccc(-c4ccccc4)cc3)NC(=O)[C@H](C(C)C)NC2=O)c1 [Compound 3616] ({CH2CO}-[Dab]Y(Carboxymethyl)D[Phe(3-Me)]V[Bip]Y[Orn][dL][Dab][Cha]V[Orn]C[dN][AEEA][Aun]-OH; thioether N-14) | 18.3 nM
Cc1cccc(C[C@@H]2NC(=O)[C@H](CC(=O)O)NC(=O)[C@H](Cc3ccc(OCC(=O)O)cc3)NC(=O)[C@H](CCN)NC(=O)CSC[C@@H](C(=O)N[C@@H](CCCN)C(=O)N[C@@H](CO)C(=O)NCCCCCCCCCCCC(=O)O)NC(=O)[C@H](CO)NC(=O)[C@H](C(C)(C)O)NC(=O)[C@H](CC3CCCCC3)NC(=O)[C@H](CCN)NC(=O)[C@@H](CC(C)C)NC(=O)[C@H](CCCN)NC(=O)[C@H](Cc3ccc(OCC(=O)O)cc3)NC(=O)[C@H](Cc3ccc(-c4ccccc4)cc3)NC(=O)[C@H](Cc3ccc(OCC(=O)O)cc3)NC2=O)c1 [Compound 3617] ({CH2CO}-[Dab]Y(Carboxymethyl)D[Phe(3-Me)]Y(Carboxymethyl)[Bip]Y(Carboxymethyl)[Orn][dL][Dab][Cha][Val(3-OH)]SC[Orn]S[12Ado]-OH; thioether N-14) | 78.8 nM

From US20260022142A1, “MACROCYCLIC IMMUNOMODULATORS” (Bristol-Myers Squibb Company, priority 2022, published 2026)
